We go through seven compounds from patent publication US20240034731A1, “AZA-QUINAZOLINE COMPOUNDS AND METHODS OF USE” (Iambic Therapeutics, Inc., priority 2022, published 2024).

One assay deals with OVCAR-3 cells. The experiment in a line: Cell Growth Inhibition, OVCAR-3 (CellTiterGlo, 6 days). It is filed as cell-based. Particulars: Homo sapiens, 144 h, OVCAR-3, 6-day treatment. The essentials: (§1)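 MCF-7 (ER+ breast adenocarcinoma) or CCNE1-amplified OVCAR-3 cells, 500/well in RPMI with 10% FBS, treated with half-log dilutions typically 10-10,000 nM for 6 days at 37 °C. CellTiterGlo 2.0 luminescence gave % growth inhibition versus control; IC50 by four-parameter variable-slope fit.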

Another assay has as its system MCF-7 cells. The experiment in a line: Cell Growth Inhibition, MCF-7 (CellTiterGlo, 6 days). The class given is cell-based. Particulars: Homo sapiens, MCF7, 144 h, MCF-7, 6-day treatment. Put shortly: as §1
A general note: Cellular ATP, detected with luciferase, serves as a proxy for viable cell number.

A further assay addresses CDK6/Cyclin D3 (Homo sapiens (Human), UniProt Q00534). The experiment in a line: CDK6/Cyclin D3 ADP-Glo Kinase Assay. It is filed as biochemical. Particulars: 100 uM ATP, read-out: CDK6/ CyclinD3 IC50. Put shortly: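 Enzyme and inhibitor were pre-incubated for 30 min at room temperature before ATP/substrate was added. The kinase reaction ran 90 min at room temperature, and ADP formed was detected by ADP-Glo luminescence. IC50 was fitted with a 4-parameter equation to fractional velocity versus inhibitor concentration.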
For orientation: ADP-Glo turns the ADP formed in a reaction into a luminescent signal.

Another assay has as its target CDK2/Cyclin E1 (Homo sapiens (Human), UniProt P24941). The experiment in a line: CDK2/Cyclin E1 Full length ADP-Glo Kinase Assay. The class given is biochemical. Particulars: 20 uM ATP, read-out: CDK2/ CyclinE1 IC50. Put shortly: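 Full-length human CDK2/cyclin E1 was preincubated 30 min at room temperature with inhibitor, then reacted 90 min with ATP-containing substrate solution. ADP formed was measured by ADP-Glo luminescence; IC50 from 4-parameter fit of fractional velocity versus inhibitor concentration.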

A further assay deals with CDK4/Cyclin D1 (Homo sapiens (Human), UniProt P11802). The experiment in a line: CDK4/Cyclin D1 CHEF Assay (AQT0258 peptide). Particulars: 200 uM ATP, read-out: CDK4/ CyclinD1 AQT IC50. It is filed as biochemical. The essentials: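 Sox-labelled peptide AQT0258 phosphorylation read as chelation-enhanced fluorescence (ex 360/em 485 nm) with Mg(II). Enzyme preincubated with inhibitor 30 min at 22°C, substrate added, 3 h at 22°C; IC50 from four-parameter fit of fractional velocity versus inhibitor concentration.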

In another assay the target is CDK1/Cyclin B1 (Homo sapiens (Human), UniProt P06493). The experiment in a line: CDK1/Cyclin B1 ADP-Glo Kinase Assay. It is filed as biochemical. Conditions: ADP-Glo, 80 uM ATP; read-out: CDK1 Cyclin B1 IC50. Put shortly: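 Enzyme and inhibitor pre-incubated 30 min at room temperature before ATP/substrate addition; reaction run 90 min at room temperature. ADP formed measured by ADP-Glo luminescence; IC50 from a 4-parameter fit of fractional velocity versus inhibitor concentration.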

Each structure is given as a SMILES string.

Sequence of CDK6/Cyclin D3 (Q00534 whole entry): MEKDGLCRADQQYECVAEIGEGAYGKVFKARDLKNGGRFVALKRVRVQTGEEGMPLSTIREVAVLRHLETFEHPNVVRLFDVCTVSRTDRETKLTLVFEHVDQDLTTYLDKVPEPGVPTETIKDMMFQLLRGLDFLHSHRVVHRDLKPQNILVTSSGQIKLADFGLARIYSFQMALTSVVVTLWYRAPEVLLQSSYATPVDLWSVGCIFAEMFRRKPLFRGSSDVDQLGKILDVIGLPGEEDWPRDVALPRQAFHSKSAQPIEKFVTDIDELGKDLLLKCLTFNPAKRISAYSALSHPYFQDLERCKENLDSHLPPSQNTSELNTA
Sequence of CDK6/Cyclin D3 (P30281 whole entry partner): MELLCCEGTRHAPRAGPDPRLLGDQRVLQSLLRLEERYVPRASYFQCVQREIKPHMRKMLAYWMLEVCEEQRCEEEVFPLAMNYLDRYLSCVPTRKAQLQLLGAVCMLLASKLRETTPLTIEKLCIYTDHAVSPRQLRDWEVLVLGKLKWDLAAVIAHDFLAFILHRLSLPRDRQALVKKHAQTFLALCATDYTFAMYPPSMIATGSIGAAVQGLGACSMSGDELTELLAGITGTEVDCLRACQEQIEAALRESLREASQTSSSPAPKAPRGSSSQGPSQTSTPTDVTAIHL
Sequence of CDK4/Cyclin D1 (P11802 whole entry): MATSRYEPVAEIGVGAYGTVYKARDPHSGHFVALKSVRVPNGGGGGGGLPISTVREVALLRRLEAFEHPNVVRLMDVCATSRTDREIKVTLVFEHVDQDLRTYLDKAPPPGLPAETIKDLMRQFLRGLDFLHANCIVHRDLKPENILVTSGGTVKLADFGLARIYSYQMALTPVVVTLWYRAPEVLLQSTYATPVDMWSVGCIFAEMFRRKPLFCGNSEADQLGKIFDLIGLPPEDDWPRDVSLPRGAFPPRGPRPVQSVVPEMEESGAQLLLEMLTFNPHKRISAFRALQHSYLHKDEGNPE
Sequence of CDK4/Cyclin D1 (P24385 whole entry partner): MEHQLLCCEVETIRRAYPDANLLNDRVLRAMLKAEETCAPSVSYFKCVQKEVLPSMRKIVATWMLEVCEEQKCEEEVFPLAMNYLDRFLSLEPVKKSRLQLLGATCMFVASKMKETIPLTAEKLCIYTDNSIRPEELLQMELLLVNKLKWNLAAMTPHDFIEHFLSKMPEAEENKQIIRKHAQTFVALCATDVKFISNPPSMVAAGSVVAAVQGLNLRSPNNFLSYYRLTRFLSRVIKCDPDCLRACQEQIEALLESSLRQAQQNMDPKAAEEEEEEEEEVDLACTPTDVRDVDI
Sequence of CDK1/Cyclin B1 (P06493 whole entry): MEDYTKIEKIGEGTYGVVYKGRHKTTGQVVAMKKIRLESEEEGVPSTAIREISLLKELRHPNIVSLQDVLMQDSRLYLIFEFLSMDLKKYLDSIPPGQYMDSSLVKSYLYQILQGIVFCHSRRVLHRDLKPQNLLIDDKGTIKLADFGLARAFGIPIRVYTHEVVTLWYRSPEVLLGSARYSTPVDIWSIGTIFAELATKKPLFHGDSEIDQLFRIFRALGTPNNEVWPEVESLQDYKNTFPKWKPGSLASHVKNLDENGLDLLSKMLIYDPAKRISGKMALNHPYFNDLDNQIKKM
Sequence of CDK1/Cyclin B1 (P14635 whole entry partner): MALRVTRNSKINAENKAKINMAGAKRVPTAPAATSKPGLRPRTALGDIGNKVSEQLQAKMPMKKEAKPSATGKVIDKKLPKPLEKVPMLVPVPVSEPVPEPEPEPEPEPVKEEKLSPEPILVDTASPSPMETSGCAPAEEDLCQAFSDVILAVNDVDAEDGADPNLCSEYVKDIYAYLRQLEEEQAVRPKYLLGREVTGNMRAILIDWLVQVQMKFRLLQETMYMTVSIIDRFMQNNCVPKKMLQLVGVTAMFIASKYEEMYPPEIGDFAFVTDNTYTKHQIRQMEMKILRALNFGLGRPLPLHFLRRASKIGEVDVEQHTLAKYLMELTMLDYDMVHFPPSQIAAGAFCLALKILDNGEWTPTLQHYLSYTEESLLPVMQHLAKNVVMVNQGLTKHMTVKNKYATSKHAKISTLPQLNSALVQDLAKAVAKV

`O=S(=O)(CC1CCC1)N1CCC(Nc2ncc3cc(C(F)F)nc(N4CC5(CCNC5)C4)c3n2)CC1` [Compound 55, N-(1-((cyclobutylmethyl)sulfonyl)piperidin-4-yl)-6-(difluoromethyl)-8-(2,6-diazaspiro[3.4]octan-2-yl)pyrido[3,4-d]pyrimidin-2-amine]: the IC50 is 0.5 to 2 µM with OVCAR-3 cells; 0.2 to 0.5 µM in the assay with MCF-7 cells; below 0.2 µM on CDK6/Cyclin D3; below 0.2 µM on CDK2/Cyclin E1; below 0.2 µM on CDK4/Cyclin D1; below 0.2 µM at CDK1/Cyclin B1.
In the case of `Cc1cc2cnc(NC3CCN(S(=O)(=O)C4CC4)CC3)nc2c(N2CC(O)(C3CC3)C2)n1` [Compound 56, 3-cyclopropyl-1-(2-((1-(cyclopropylsulfonyl)piperidin-4-yl)amino)-6-methylpyrido[3,4-d]pyrimidin-8-yl)azetidin-3-ol], the IC50 with OVCAR-3 cells is 0.5 to 2 µM; with MCF-7 cells, 0.5 to 2 µM; on CDK6/Cyclin D3, below 0.2 µM; on CDK2/Cyclin E1, below 0.2 µM; on CDK4/Cyclin D1, below 0.2 µM; on CDK1/Cyclin B1, below 0.2 µM.
For `Cc1cc2cnc(NC3CCN(S(=O)(=O)C4CC4)CC3)nc2c(N2CC(OC3CC3)C2)n1` [Compound 57, 8-(3-cyclopropoxyazetidin-1-yl)-N-(1-(cyclopropylsulfonyl)piperidin-4-yl)-6-methylpyrido[3,4-d]pyrimidin-2-amine], the IC50 was above 2 µM in the assay with OVCAR-3 cells; above 2 µM with MCF-7 cells; below 0.2 µM at CDK6/Cyclin D3; below 0.2 µM at CDK2/Cyclin E1; below 0.2 µM on CDK4/Cyclin D1; 0.2 to 0.5 µM at CDK1/Cyclin B1.
As to `Cc1cc2cnc(NC3CCN(S(=O)(=O)C4CC4)CC3)nc2c(N2CCC(OC(F)F)C2)n1` (stereo not drawn) [Compound 58, N-(1-(cyclopropylsulfonyl)piperidin-4-yl)-8-(3-(difluoromethoxy)pyrrolidin-1-yl)-6-methylpyrido[3,4-d]pyrimidin-2-amine], the IC50 is 0.5 to 2 µM with OVCAR-3 cells; 0.5 to 2 µM in the assay with MCF-7 cells; below 0.2 µM on CDK6/Cyclin D3; below 0.2 µM at CDK2/Cyclin E1; below 0.2 µM on CDK4/Cyclin D1; below 0.2 µM at CDK1/Cyclin B1.
Turning to `Cc1cc2cnc(NC3CCN(S(=O)(=O)C4(C)CC4)CC3)nc2c(N2CCC3(CN(C)C3)C2)n1` [Compound 59, 6-methyl-8-(2-methyl-2,6-diazaspiro[3.4]octan-6-yl)-N-(1-((1-methylcyclopropyl)sulfonyl)piperidin-4-yl)pyrido[3,4-d]pyrimidin-2-amine], the IC50 in the assay with OVCAR-3 cells was 0.5 to 2 µM; with MCF-7 cells, 0.5 to 2 µM; on CDK6/Cyclin D3, below 0.2 µM; at CDK2/Cyclin E1, below 0.2 µM; at CDK4/Cyclin D1, below 0.2 µM; on CDK1/Cyclin B1 it was 0.5 to 2 µM.
Turning to `Cc1cc2cnc(NC3CCN(S(=O)(=O)C4CC4)CC3)nc2c(N2CC3(CCNCC3(F)F)C2)n1` [Compound 61, N-(1-(cyclopropylsulfonyl)piperidin-4-yl)-8-(5,5-difluoro-2,7-diazaspiro[3.5]nonan-2-yl)-6-methylpyrido[3,4-d]pyrimidin-2-amine], the IC50 in the assay on OVCAR-3 cells is 0.5 to 2 µM; in the assay with MCF-7 cells it was 0.5 to 2 µM; on CDK6/Cyclin D3, below 0.2 µM; on CDK2/Cyclin E1, below 0.2 µM; on CDK4/Cyclin D1, below 0.2 µM; at CDK1/Cyclin B1, below 0.2 µM.
Take `Cc1cc2cnc(NC3CCN(S(=O)(=O)C4(C)CC4)CC3)nc2c(C2CC(C)(O)C2)n1` (stereo not drawn) [Compound 63, 1-methyl-3-(6-methyl-2-((1-((1-methylcyclopropyl)sulfonyl)piperidin-4-yl)amino)pyrido[3,4-d]pyrimidin-8-yl)cyclobutan-1-ol]: the IC50 in the assay with OVCAR-3 cells was above 2 µM; in the assay on MCF-7 cells it was above 2 µM; at CDK6/Cyclin D3 it was above 2 µM; at CDK2/Cyclin E1, 0.2 to 0.5 µM; at CDK4/Cyclin D1 it was 0.5 to 2 µM; on CDK1/Cyclin B1 it was above 2 µM.
